Laboratory results from US20250009746A1, “COMBINATION THERAPY FOR TREATING ABNORMAL CELL GROWTH” (Verastem, Inc., priority 2021, published 2025).
“Also recorded” adds a separate entry of the source.

Tests used:
Assay type in all cases: cell-based
[1] = tested on: NRAS mutant human melanoma cell lines; assay: 3D proliferation assay (CellTiter-Glo) with synergy analysis, NRAS mutant melanoma panel; conditions: VS-6766 + pan-RAF inhibitor (e.g., belvarafenib, naporafenib, lifirafenib, tovorafenib); 7 days; 3 NRAS mutant melanoma cell lines; Bliss, Loewe, HSA, ZIP (FIGS. 7, 8)
Experimental: (§1) As examples, BRAF V600E human melanoma, BRAF V600E human colorectal carcinoma (CRC), and NRAS mutant human melanoma cell lines were grown in 3D conditions. Briefly, 96-well plates were coated with 50 μL of Matrigel (100%) and incubated at 37° C. and 5% CO2 for 30 min in order for the Matrigel to solidify. Cells were seeded in 100 μL of 2% Matrigel containing medium. After an overnight incubation (17-22 hours), cells were treated with VS-6766+/−BRAF V600 inhibitor (e.g., vemurafenib, dabrafenib, encorafenib), VS-6766+/−pan-RAF inhibitor (e.g., belvarafenib, naporafenib, lifirafenib, tovorafenib), or MEK inhibitor (e.g., cobimetinib, trametinib, binimetinib)+/−BRAF (e.g., vemurafenib, dabrafenib, encorafenib) inhibitor for 7 days. VS-6766 and MEK inhibitors were used at 1:5 dilutions starting at 5 μM. BRAF V600 inhibitors and pan-RAF inhibitors were used at 1:3 dilutions starting at 5 μM. Cell viability was measured using the cell viability CellTiter-Glo assay.
(§2) Raw data and metadata files were processed with a custom R-script for single agent and combination activity. Bliss, Loewe, Highest Single Agent (HSA) and ZIP synergy analysis were performed to generate a composite synergy score. Summary graphics and reports were saved for visualization and further analysis.

[2] = tested on: BRAF V600E human melanoma cell lines; assay: 3D proliferation assay (CellTiter-Glo) with synergy analysis, BRAF V600E melanoma panel
Experimental: as §1, §2

[3] = tested on: BRAF V600E human colorectal carcinoma (CRC) cell lines; assay: 3D proliferation assay (CellTiter-Glo) with synergy analysis, BRAF V600E CRC panel
Experimental: as §1, §2

CNS(=O)(=O)Nc1nccc(Cc2c(C)c3ccc(Cc4ncccn4)cc3oc2=O)c1F [VS-6766]
synergy with pan-RAF inhibitors in reducing cell viability [1]: strong synergy; also recorded: synergistic | synergy of VS-6766+BRAFi compared with synergy of MEKi+BRAFi ([2]; BRAF V600E melanoma cell lines, composite synergy score (FIG. 1)): better | synergy of VS-6766+vemurafenib compared with synergy of cobimetinib+vemurafenib ([2]; BRAF V600E melanoma cell lines, dose-response matrices, each agent starting at 5 μM, Bliss synergy shown (FIG. 2)): better | synergy of VS-6766+dabrafenib compared with synergy of trametinib+dabrafenib ([2]; BRAF V600E melanoma cell lines, dose-response matrices, each agent starting at 5 μM, Bliss synergy shown (FIG. 3)): better | synergy with BRAF V600 inhibitors in reducing cell viability ([2]; VS-6766 + BRAF V600 inhibitor (e.g., vemurafenib, dabrafenib, encorafenib), 7 days, 5 BRAF V600E melanoma cell lines, Bliss, Loewe, HSA, ZIP composite synergy score): synergistic | synergy of VS-6766+BRAFi compared with synergy of MEKi+BRAFi ([3]; BRAF V600E colorectal carcinoma cell lines, composite synergy score (FIG. 4)): better | synergy of VS-6766+vemurafenib compared with synergy of cobimetinib+vemurafenib ([3]; BRAF V600E colorectal carcinoma cell lines, dose-response matrices, each agent starting at 5 μM, Bliss synergy shown (FIG. 5)): better | synergy of VS-6766+dabrafenib compared with synergy of trametinib+dabrafenib ([3]; BRAF V600E colorectal carcinoma cell lines, dose-response matrices, each agent starting at 5 μM, Bliss synergy shown (FIG. 6)): better | synergy with BRAF V600 inhibitors in reducing cell viability ([3]; VS-6766 + BRAF V600 inhibitor (e.g., vemurafenib, dabrafenib, encorafenib), 7 days, 3 BRAF V600E CRC cell lines, Bliss, Loewe, HSA, ZIP composite synergy score): synergistic
